Assays:
Format in all cases: functional
[1] = Antiplatelet activity against platelet assessed as inhibition of ADP-induced platelet aggregation at 50 ug/ml by turbidimetry
[2] = Antiplatelet activity against platelet assessed as inhibition of collagen-induced platelet aggregation at 50 ug/ml by turbidimetry
[3] = Antiplatelet activity against platelet assessed as inhibition of ADP-induced platelet aggregation at 10 ug/ml by turbidimetry
[4] = Antiplatelet activity against platelet assessed as inhibition of collagen-induced platelet aggregation at 10 ug/ml by turbidimetry
[5] = Antiplatelet activity against platelet assessed as inhibition of collagen-induced platelet aggregation at 5 ug/ml by turbidimetry

## CC(=O)Oc1ccccc1C(=O)O [ASPIRIN]
[1]
  inhibition at 50 µg/mL: 74%
[2]
  inhibition at 50 µg/mL: 72%

## Cc1coc2c1C(=O)c1ccc3c(c1C2=O)CCCC3(C)CO (stereo not given) [ISOTANSHINONE IIB]
[3]
  inhibition at 10 µg/mL: 40%
[4]
  inhibition at 10 µg/mL: 81%
[5]
  inhibition at 5 µg/mL: 4%

— ChEMBL document CHEMBL1150708, “Isolation and bioactivity of new tanshinones” (1987)
